Holding throughout (assay type): functional
The test system of experiment [1] is Mus musculus. Description: In vivo activity against P388 lymphocytic leukemia, and the maximum T/C values were reported. T/C >=125 is considered active.
The species entered for experiment [2] is Mus musculus. The experiment is described as follows: Optimal dose required for activity against P388 lymphocytic leukemia.
Experiment [3] is filed under the species Mus musculus. Description: Optimal dose required for activity against P388 lymphocytic leukemia.

In the case of `C/C=C1\C[C@H]2[C@@H](OC)Nc3cc(O)c(OC)cc3C(=O)N2C1`, the “Max T/C” value in experiment [1] stood at 188. This compound showed an OD in experiment [2] of 0.2 mg/kg.
The matching figures for `C/C=C/CN1CC=Nc2c(O)cccc2C1=O`: 138 and 20 mg/kg.
On to `O=C1c2ccccc2N=CC2CCCN12` (stereo unspecified), for which, in experiment [1], the “Max T/C” value is recorded as 133. The same compound yielded an OD in experiment [2] of 8 mg/kg.
In the same order, the values of `COc1cc2c(cc1O)N[C@H](OC)[C@@H]1CC(O)CN1C2=O` (stereo partly specified) are 144 and 6.4 mg/kg.
With `O=C1c2cccc(O)c2N=CCN1Cc1ccccc1`, the “Max T/C” value in experiment [1] came out at 100. The same compound registered an OD in experiment [2] of 16 mg/kg.
The matching figures for `COC(=O)/C=C1/C[C@H]2[C@@H](S(=O)(=O)[O-])Nc3cc(O)c(OC)cc3C(=O)N2C1.[Na+]`: 131 and 6 mg/kg.
The matching figures for `CCOC(=O)CN1CC=Nc2c(O)cccc2C1=O`: 106 and 40 mg/kg.
For `CN1CC=Nc2c(O)cccc2C1=O`, the “Max T/C” value in experiment [1] is 122. In experiment [2], this compound displayed an OD of 16 mg/kg.
With `O=C1NCC=Nc2c(O)cccc21`, in experiment [1], the “Max T/C” value was determined as 125. In experiment [2], this compound had an OD of 16 mg/kg.
With `COc1cc2c(cc1O)N[C@@H](OC)[C@@H]1CC(O)CN1C2=O` (stereo partly specified), the “Max T/C” value in experiment [1] was 100. Also, the OD in experiment [2] came to 16 mg/kg.
As to `C=CCN1CC=Nc2c(O)cccc2C1=O`, in experiment [1], the “Max T/C” value was found to be 117. In experiment [2], this compound had an OD of 80 mg/kg.
As for `C#CCN1CC=Nc2c(O)cccc2C1=O`, in experiment [1], the “Max T/C” value was 162. In experiment [2], this compound gave an OD of 16 mg/kg.
In turn, `COc1cc2c(cc1OC(C)=O)N[C@H](OC)[C@@H]1CC(OC(C)=O)CN1C2=O` (stereo partly specified) returned an OD in experiment [3] of 16 mg/kg. The “Max T/C” value in experiment [1] stood at 100.

(Values after ChEMBL document CHEMBL1123110, “Bicyclic and tricyclic analogues of anthramycin” (1985).)
